Test results reported in US9908848B2, “Amide derivatives of lactam based N-acylethanolamine acid amidase (NAAA) inhibitors” (The Regents of the University of California, priority 2013, dated 2018).

Columns and labels:
[1] = molecular target: T1, r-NAAA (Rattus norvegicus, UniProt Q5KTC7); test: UPLC/MS r-NAAA assay; type: biochemical; conditions: rat lung lysosomal NAAA preparation
T1 construct: Lysosomal NAAA protein preparation was obtained by homogenizing male Sprague-Dawley rat lungs; tissue Charles River; host or cells: male Sprague-Dawley rat lung, soluble lysosomal fraction
T1 sequence (Q5KTC7 34-362): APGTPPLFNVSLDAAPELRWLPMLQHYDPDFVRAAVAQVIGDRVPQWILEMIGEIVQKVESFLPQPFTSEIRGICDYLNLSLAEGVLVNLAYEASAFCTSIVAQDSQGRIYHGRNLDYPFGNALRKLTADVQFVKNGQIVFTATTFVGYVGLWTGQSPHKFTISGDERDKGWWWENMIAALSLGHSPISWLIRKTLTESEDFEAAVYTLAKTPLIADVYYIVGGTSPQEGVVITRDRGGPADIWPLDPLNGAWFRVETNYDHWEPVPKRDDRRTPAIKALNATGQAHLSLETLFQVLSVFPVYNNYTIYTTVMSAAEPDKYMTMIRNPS
Experimental: Lysosomal NAAA protein preparation was obtained by homogenizing male Sprague-Dawley rat lungs (Charles River) in 20 mM Tris-HCl buffer pH 7.4 containing 0.32M sucrose. Samples were centrifuged at 800×g for 15 min at 4° C. Supernatants were centrifuged at 12,000×g for 30 min at 4° C. Pellets were then resuspended in PBS pH 7.4 and subjected to a freeze/thaw cycle at −80° C. The suspension was finally centrifuged at 105,000 g for 1 h at 4° C. The supernatant was used in enzymatic assays.
NAAA preparations were pre-incubated with various concentrations of test compounds or vehicle control in 100 mM NaH2PO4/Citrate buffer, 1% Triton-X, 3 mM DTT (pH 4.5) for 30 min at 37° C. Samples were incubated with heptadecenoylethanolamide (50 μM, Avanti Polar Lipids) at 37° C. for 30 min. The reaction was terminated by addition of cold methanol containing heptadecanoic acid (NuCheck Prep) as internal standard. Samples were analyzed by UPLC/MS (Acquity, Waters). Heptadecenoic and heptadecanoic acids were eluted on an Acquity UPLC BEH C18 column (50 mm length, 2.1 mm i.d., 1.7 μm pore size, Waters) isocratically at 0.5 mL/min for 1.5 min with a solvent mixture of 95% methanol and 5% H2O, both containing 0.25% Acetic Acid and 5.0 mM ammonium acetate. The column temperature was 40° C. Electrospray ionization was in the negative mode, capillary voltage was 0.5 kV, cone voltage was […], desolvation temperature was 500° C. N2 was used as drying gas at a flow rate of 1000 L/hour and a temperature of 500° C. The [M−H]^− ion was monitored in the selected-ion monitoring mode (m/z values: heptadecenoic acid 267.37, heptadecanoic acid 269.37). Calibration curves were generated using commercial heptadecenoic acid (NuCheck Prep) Inhibition of NAAA activity was calculated as reduction of heptadecenoic acid in the samples compared to vehicle controls. IC50 values were calculated by non-linear regression analysis of log [concentration]/inhibition curves using GraphPad Prism 5 (GraphPad Software Inc., CA—USA) applying a standard slope curve fitting.

[2] = test system: carrageenan-induced paw edema and heat hyperalgesia; test: Carrageenan-induced inflammation (paw edema, heat hyperalgesia); type: in vivo; conditions: mice, intraperitoneal, 10-100 mg/kg

Compound | IC50 [1] [µM] | paw edema ([2]; FIG. 1 A) | heat hyperalgesia ([2]; FIG. 1 B)
CCCCCCCCC(=O)N[C@H]1CNC1=O [Example 3, N-[(3S)-2-Oxoazetidin-3-yl]-nonanamide] | 0.24 | reduced | reduced
O=C(CCCCCCc1ccccc1)N[C@H]1CNC1=O [Example 7, 7-Phenyl-N-[(3S)-2-Oxoazetidin-3-yl]-heptanamide] | 2.1 | – | –
